The experiment addresses T1, glucosylceramide synthase (Homo sapiens, UniProt Q16739).
T1 construct: made in house; host or cells: Expi293F cells (transient expression, pcDNA3.3-TOPO vector); microsome fraction used as enzyme source
T1 sequence (Q16739 1-394): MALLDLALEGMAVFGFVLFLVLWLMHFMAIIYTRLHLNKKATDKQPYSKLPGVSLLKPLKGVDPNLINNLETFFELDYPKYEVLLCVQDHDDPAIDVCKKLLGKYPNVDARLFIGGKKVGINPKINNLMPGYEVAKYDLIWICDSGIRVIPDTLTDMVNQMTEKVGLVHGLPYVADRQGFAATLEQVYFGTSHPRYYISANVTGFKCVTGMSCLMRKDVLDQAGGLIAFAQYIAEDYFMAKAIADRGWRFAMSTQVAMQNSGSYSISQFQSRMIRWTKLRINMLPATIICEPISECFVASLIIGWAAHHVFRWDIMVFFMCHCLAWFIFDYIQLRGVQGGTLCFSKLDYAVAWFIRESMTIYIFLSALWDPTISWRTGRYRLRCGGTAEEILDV
As to the kind of experiment: Glucosylceramide synthase (GCS) enzyme assay, microsome fraction, C8 glucosylceramide quantified by Rapidfire MS/MS. The following applies: test compound 10 μM, 1.7 μM UDP-glucose, 3 μM C8 ceramide, room temperature 60 min; for inhibition at 10 µM: read-out: GCS enzyme inhibitory rate at 10 μM (%) (% of control). Type of experiment: biochemical. The method, boiled down:
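Test compound, 10 μM final, was run against human GCS from transfected Expi293F microsome fractions, using substrate solution of 6 μM C8 ceramide (in DOPC liposomes) plus 3.4 μM UDP-glucose, pH 7.5 Tris buffer, 60 min, room temperature. Product C8 glucosylceramide measured by Rapidfire MS/MS against an internal standard, % inhibition referenced to no-enzyme and DMSO wells.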

Regarding `CS(=O)(=O)c1ccc(N2Cc3c(ccnc3-c3ccccc3OCC(F)(F)F)C2=O)cc1` [Example 161, 2-[4-(methanesulfonyl)phenyl]-4-[2-(2,2,2-trifluoroethoxy)phenyl]-2,3-dihydro-1H-pyrrolo[3,4-c]pyridin-1-one], the inhibition at 10 µM is 98%.
Consider `N#Cc1ccc(N2Cc3c(ccnc3-c3ccccc3OCC(F)(F)F)C2=O)nc1` [Example 72, 6-{1-oxo-4-[2-(2,2,2-trifluoroethoxy)phenyl]-1,3-dihydro-2H-pyrrolo[3,4-c]pyridin-2-yl}pyridine-3-carbonitrile], for which the inhibition at 10 µM worked out at 100%.
Same read-out and setting: with `O=C1c2ccnc(-c3ccccc3OC(F)F)c2CN1c1ccc(F)cc1` [Example 28, 4-[2-(difluoromethoxy)phenyl]-2-(4-fluorophenyl)-2,3-dihydro-1H-pyrrolo[3,4-c]pyridin-1-one] the figure was 84%.
On to `COc1ccc(N2Cc3c(ccnc3-c3ccccc3OC)C2=O)cc1` [Example 24, 4-(2-methoxyphenyl)-2-(4-methoxyphenyl)-2,3-dihydro-1H-pyrrolo[3,4-c]pyridin-1-one], for which the inhibition at 10 µM came out at 89%.
Still for that read-out and setting: with `CC(O)(c1ccc(N2Cc3c(ccnc3-c3ccccc3OCC(F)(F)F)C2=O)cc1)C(F)(F)F` (racemic) [Example 295, rac-4-[2-(2,2,2-trifluoroethoxy)phenyl]-2-[4-(1,1,1-trifluoro-2-hydroxypropan-2-yl)phenyl]-2,3-dihydro-1H-pyrrolo[3,4-c]pyridin-1-one] the figure was 100%.
The same measure, in the same setting: with `C#CCCC1(CCOc2ccc(N3Cc4c(ccnc4-c4ccccc4OCC(F)(F)F)C3=O)cc2)N=N1` [Example 349, 2-(4-{2-[3-(but-3-yn-1-yl)-3H-diaziren-3-yl]ethoxy}phenyl)-4-[2-(2,2,2-trifluoroethoxy)phenyl]-2,3-dihydro-1H-pyrrolo[3,4-c]pyridin-1-one] the figure was 100%; with `CC(C)(C)[Si](C)(C)OC1(c2ccc(N3Cc4c(ccnc4-c4ccccc4OCC(F)(F)F)C3=O)cc2)CC1` [Example 221, 2-[4-(1-{[tert-butyl(dimethyl)silyl]oxy}cyclopropyl)phenyl]-4-[2-(2,2,2-trifluoroethoxy)phenyl]-2,3-dihydro-1H-pyrrolo[3,4-c]pyridin-1-one], 99%.
Same read-out and setting: with `COc1ccccc1-c1nccc2c1CN(c1ccc(OCC(F)(F)F)cc1)C2=O` [Example 50, 4-(2-methoxyphenyl)-2-[4-(2,2,2-trifluoroethoxy)phenyl]-2,3-dihydro-1H-pyrrolo[3,4-c]pyridin-1-one] the figure was 99%; with `COc1ccccc1-c1nccc2c1CN(c1ccc(OC(F)(F)F)nc1)C2=O` [Example 26, 4-(2-methoxyphenyl)-2-[6-(trifluoromethoxy)pyridin-3-yl]-2,3-dihydro-1H-pyrrolo[3,4-c]pyridin-1-one], 92%; with `COc1ccccc1-c1nccc2c1CN(c1ccc(C3CC3)cc1)C2=O` [Example 4, 2-(4-cyclopropylphenyl)-4-(2-methoxyphenyl)-2,3-dihydro-1H-pyrrolo[3,4-c]pyridin-1-one], 99%.
Turning to `O=C1c2ccnc(-c3ccc(F)cc3OCC(F)(F)F)c2CN1c1cnn(C2CC2)c1` [Example 94, 2-(1-cyclopropyl-1H-pyrazol-4-yl)-4-[4-fluoro-2-(2,2,2-trifluoroethoxy)phenyl]-2,3-dihydro-1H-pyrrolo[3,4-c]pyridin-1-one], the inhibition at 10 µM turned out to be 97%.
The same measure, in the same setting: with `CCOC(=O)c1ccc(-c2nccc3c2CN(c2ccc(F)cc2)C3=O)c(OC)c1` [Example 48, ethyl 4-[2-(4-fluorophenyl)-1-oxo-2,3-dihydro-1H-pyrrolo[3,4-c]pyridin-4-yl]-3-methoxybenzoate] the figure was 70%.
Still for that read-out and setting: with `O=C1c2ccnc(-c3ccc(F)cc3OCC(F)(F)F)c2CN1c1ccc(C(O)C(F)(F)F)cc1` (single isomer, unassigned) [Example 285, (R or S)-4-[4-fluoro-2-(2,2,2-trifluoroethoxy)phenyl]-2-[4-(2,2,2-trifluoro-1-hydroxyethyl)phenyl]-2,3-dihydro-1H-pyrrolo [3,4-c]pyridin-1-one] the figure was 97%.
Still for that read-out and setting: with `Cc1cc2c(c(-c3ccccc3OCC(F)(F)F)n1)CN(c1ccc(C3(O)CCOCC3)cc1)C2=O` [Example 348, 2-[4-(4-hydroxyoxan-4-yl)phenyl]-6-methyl-4-[2-(2,2,2-trifluoroethoxy)phenyl]-2,3-dihydro-1H-pyrrolo[3,4-c] pyridin-1-one] the figure was 100%.
For `N#CCOc1cc(F)ccc1-c1nccc2c1CN(c1ccc(OC(F)F)nc1)C2=O` [Example 112, (2-{2-[6-(difluoromethoxy)pyridin-3-yl]-1-oxo-2,3-dihydro-1H-pyrrolo[3,4-c]pyridin-4-yl}-5-fluorophenoxy)acetonitrile], the inhibition at 10 µM amounted to 98%.
The same measure, in the same setting: with `O=C1c2ccnc(-c3ccc(F)cc3OCc3ccccc3)c2CN1c1ccc(OC(F)F)nc1` [Example 101, 4-[2-(benzyloxy)-4-fluorophenyl]-2-[6-(difluoromethoxy)pyridin-3-yl]-2,3-dihydro-1H-pyrrolo[3,4-c]pyridin-1-one] the figure was 79%; with `O=C1c2[nH]nc(-c3ccc(F)cc3OCC(F)(F)F)c2CN1c1ccc(F)cc1` [Example 146, 5-(4-fluorophenyl)-3-[4-fluoro-2-(2,2,2-trifluoroethoxy)phenyl]-4,5-dihydropyrrolo[3,4-c]pyrazol-6(1H)-one], 55%; with `CC(C)(O)c1ccc(N2Cc3c(ccnc3-c3cc(F)c(F)cc3OCC(F)(F)F)C2=O)cc1` [Example 322, 4-[4,5-difluoro-2-(2,2,2-trifluoroethoxy)phenyl]-2-[4-(2-hydroxypropan-2-yl)phenyl]-2,3-dihydro-1H-pyrrolo [3,4-c]pyridin-1-one], 95%.
The same measure, in the same setting: with `N#Cc1ccc(N2Cc3c(ccnc3-c3ccc(F)cc3OCC(F)(F)F)C2=O)nc1` [Example 71, 6-{4-[4-fluoro-2-(2,2,2-trifluoroethoxy)phenyl]-1-oxo-1,3-dihydro-2H-pyrrolo[3,4-c]pyridin-2-yl}pyridine-3-carbonitrile] the figure was 99%.
`O=C1c2ccnc(-c3ccc(F)cc3OCC(F)(F)F)c2CN1c1ccc(C2(O)CCOC2)cc1` (single isomer, unassigned) [Example 263, (R or S)-4-[4-fluoro-2-(2,2,2-trifluoroethoxy)phenyl]-2-[4-(3-hydroxyoxolan-3-yl)phenyl]-2,3-dihydro-1H-pyrrolo[3,4-c]pyridin-1-one]: the “GCS enzyme inhibitory rate at 10 μM (%) (% of control)” value is 98%.
In the case of `Cc1cncc(OCC(F)(F)F)c1-c1nccc2c1CN(c1ccc(OC(F)F)cc1)C2=O` [Example 198, 2-[4-(difluoromethoxy)phenyl]-4-[3-methyl-5-(2,2,2-trifluoroethoxy)pyridin-4-yl]-2,3-dihydro-1H-pyrrolo[3,4-c]pyridin-1-one], the “GCS enzyme inhibitory rate at 10 μM (%) (% of control)” value came out at 99%.
Consider `O=C1c2ccnc(-c3ccc(F)cc3OCC(F)(F)F)c2CN1c1ccc(C2(O)COC2)cc1` [Example 155, 4-[4-fluoro-2-(2,2,2-trifluoroethoxy)phenyl]-2-[4-(3-hydroxyoxetan-3-yl)phenyl]-2,3-dihydro-1H-pyrrolo[3,4-c]pyridin-1-one], for which the inhibition at 10 µM turned out to be 93%.
For `COCCn1cc(N2Cc3c(ccnc3-c3ccc(F)cc3OCC(F)(F)F)C2=O)cn1` [Example 154, 4-[4-fluoro-2-(2,2,2-trifluoroethoxy)phenyl]-2-[1-(2-methoxyethyl)-1H-pyrazol-4-yl]-2,3-dihydro-1H-pyrrolo[3,4-c]pyridin-1-one], the inhibition at 10 µM turned out to be 85%.
Same read-out and setting: with `O=C1c2ccnc(-c3ccccc3OCC(F)(F)F)c2CN1c1ccc(F)cn1` [Example 51, 2-(5-fluoropyridin-2-yl)-4-[2-(2,2,2-trifluoroethoxy)phenyl]-2,3-dihydro-1H-pyrrolo[3,4-c]pyridin-1-one] the figure was 99%; with `COc1ccccc1-c1nccc2c1CN(c1ccc(Oc3ccccc3)cc1)C2=O` [Example 5, 4-(2-methoxyphenyl)-2-(4-phenoxyphenyl)-2,3-dihydro-1H-pyrrolo[3,4-c]pyridin-1-one], 100%; with `CC(C)(O)c1ccc(N2Cc3c(ccnc3-c3ccccc3OCC(F)F)C2=O)nc1` [Example 288, 4-[2-(2,2-difluoroethoxy)phenyl]-2-[5-(2-hydroxypropan-2-yl)pyridin-2-yl]-2,3-dihydro-1H-pyrrolo [3,4-c]pyridin-1-one], 99%.
On the same count and under the same terms, with `COCc1ccc(N2Cc3c(ccnc3-c3ccc(F)cc3OCC(F)(F)F)C2=O)cc1` [Example 147, 4-[4-fluoro-2-(2,2,2-trifluoroethoxy)phenyl]-2-[4-(methoxymethyl)phenyl]-2,3-dihydro-1H-pyrrolo[3,4-c]pyridin-1-one] the figure was 94%.
Consider `O=C1c2ccc(=O)n(-c3ccccc3OCC(F)(F)F)c2CN1c1ccc(OC(F)(F)F)cc1` [Example 149, 1-[2-(2,2,2-trifluoroethoxy)phenyl]-6-[4-(trifluoromethoxy)phenyl]-6,7-dihydro-1H-pyrrolo[3,4-b]pyridine-2,5-dione], for which the inhibition at 10 µM amounted to 99%.

For the origin of these results see patent US12528802B2, “Heterocyclic compound” (Takeda Pharmaceutical Company Limited, priority 2019, dated 2026).
